# Results published in patent US8609836B2, “4-aryl-2-anilino-pyrimidines” (Janssen Pharmaceutica NV, priority 2008, dated 2013).
# How the values were obtained:
# PLK4 (h) = PLK4 (h) (Homo sapiens, UniProt O00444); test: PLK-4 human kinase inhibition, scintillation proximity assay (SPA); type: biochemical; conditions: read-out: PLK4 pIC50 (converted)
# Method: (§1) In the SPA technology the activity of the kinase of interest is measured using an appropriate biotinylated substrate that is incubated with the aforementioned kinase protein in the presence of (^33P) radiolabeled ATP. (^33P) Phosphorylation of the substrate is subsequently measured through binding of the phosphorylated substrate to streptavidine coated beads that are based on the scintillant poly(vinyl toluene) (PVT-Beads). The scintillation intensity is detected by imaging on Leadseeker.
# (§2) All kinases are pre-diluted to a 10× working concentration prior to addition into the assay. The composition of the dilution buffer for each kinase is detailed below.
# (6.0 μCi/ml). After incubation of 60 minutes at room temperature, the reaction is stopped by addition of 40 μL of stop solution containing 8.7 mM EDTA, BSA 0.17%, 0.17% Triton X-100, 1.7 mg/ml SPA beads (GE-healthcare). The plate is centrifuged and read for Scintillation imaging on Leadseeker.
# AuroraB (h) = AuroraB (h) (Homo sapiens, UniProt Q96GD4); test: Aurora-B human kinase inhibition, SPA; type: biochemical; conditions: read-out: AuroraB pIC50 (converted)
# AuroraB (h), sequence (Q96GD4 whole entry): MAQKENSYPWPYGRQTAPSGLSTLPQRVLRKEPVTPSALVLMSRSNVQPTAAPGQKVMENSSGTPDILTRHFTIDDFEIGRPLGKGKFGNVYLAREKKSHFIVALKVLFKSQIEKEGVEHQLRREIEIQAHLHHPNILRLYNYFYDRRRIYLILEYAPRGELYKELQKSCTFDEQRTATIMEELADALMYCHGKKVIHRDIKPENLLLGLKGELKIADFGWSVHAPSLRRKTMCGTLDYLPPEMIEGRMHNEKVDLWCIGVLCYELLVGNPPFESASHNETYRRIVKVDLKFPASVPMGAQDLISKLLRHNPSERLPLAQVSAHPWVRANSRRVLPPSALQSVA
# Method: (§3) The in vitro inhibition of a panel of kinases was assessed using either the scintillation proximity assay (SPA) as described by Cook, N. D. et al., Advances in Experimental Medicine and Biology (1991), 36; p. 525-528.
# as §1, §2
# In a final reaction volume of 30 μl, AuroraB (h) (0.5 μg/ml) is incubated with 60 mM Hepes pH 7.5, 3 mM MgCl2, 3 mM MnCl2, 3 μM Na3VO4, 0.05 mg/ml PEG, 2 mM DTT, 3 μM Biotin-[…]-OH, 0.5 μM ATP and 2.2 nM [γ-^33P-ATP] (6.8 μCi/ml). After incubation of 60 minutes at room temperature, the reaction is stopped by addition of 40 μL of stop solution containing 8.7 mM EDTA, BSA 0.17%, 0.17% Triton X-100, 5 mg/ml SPA beads (GE-healthcare). The plate is centrifuged and read for Scintillation imaging on Leadseeker.
# GSK3β (h) = GSK3β (h) (Homo sapiens, UniProt P49841); test: GSK-3β human kinase inhibition, SPA; type: biochemical; conditions: read-out: GSK3b pIC50 (converted)
# GSK3β (h), sequence (P49841 whole entry): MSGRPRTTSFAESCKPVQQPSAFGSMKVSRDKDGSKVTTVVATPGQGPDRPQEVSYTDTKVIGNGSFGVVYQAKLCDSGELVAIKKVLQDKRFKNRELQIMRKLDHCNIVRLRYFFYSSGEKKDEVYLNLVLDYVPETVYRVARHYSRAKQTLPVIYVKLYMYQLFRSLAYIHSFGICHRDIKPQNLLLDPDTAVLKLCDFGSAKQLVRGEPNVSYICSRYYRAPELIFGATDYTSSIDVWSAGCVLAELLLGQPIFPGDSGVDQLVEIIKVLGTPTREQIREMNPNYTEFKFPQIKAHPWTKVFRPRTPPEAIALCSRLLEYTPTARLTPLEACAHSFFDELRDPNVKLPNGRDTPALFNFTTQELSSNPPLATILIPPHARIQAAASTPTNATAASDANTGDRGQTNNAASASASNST
# Method: as §3, §1, §2
# In a final reaction volume of 30 μl, GSK3β (h) (1 μg/ml) is incubated with 25 mM Tris pH 7.4, 10 mM MgCl2, 1 mM DTT, 1 μM peptide Biotin-[…]-OH, 1 μM ATP and 2 nM [γ-^33P-ATP] (6.0 μCi/ml). After incubation of 60 minutes at room temperature, the reaction is stopped by addition of 40 μL of stop solution containing 8.7 mM EDTA, BSA 0.17%, 0.17% Triton X-100, 6.25 mg/ml SPA beads (GE-healthcare). The plate is centrifuged and read for Scintillation imaging on Leadseeker.
# CDK1/CyclinB (h) = CDK1/CyclinB (h) (Homo sapiens, UniProt P06493); test: CDK1/CyclinB human kinase inhibition, Invitrogen's FRET assay (Z'lyte); type: biochemical; conditions: read-out: CDK1 pIC50 (converted)
# CDK1/CyclinB (h), sequence (P06493 whole entry): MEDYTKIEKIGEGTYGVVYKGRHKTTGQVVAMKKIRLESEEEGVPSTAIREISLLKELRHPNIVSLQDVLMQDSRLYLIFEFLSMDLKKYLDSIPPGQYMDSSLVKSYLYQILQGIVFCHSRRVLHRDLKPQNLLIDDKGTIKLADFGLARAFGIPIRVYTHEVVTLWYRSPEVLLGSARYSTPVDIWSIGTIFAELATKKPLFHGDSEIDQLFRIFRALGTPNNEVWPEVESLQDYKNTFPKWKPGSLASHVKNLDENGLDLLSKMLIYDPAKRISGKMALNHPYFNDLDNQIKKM
# CDK1/CyclinB (h), sequence (P14635 whole entry partner): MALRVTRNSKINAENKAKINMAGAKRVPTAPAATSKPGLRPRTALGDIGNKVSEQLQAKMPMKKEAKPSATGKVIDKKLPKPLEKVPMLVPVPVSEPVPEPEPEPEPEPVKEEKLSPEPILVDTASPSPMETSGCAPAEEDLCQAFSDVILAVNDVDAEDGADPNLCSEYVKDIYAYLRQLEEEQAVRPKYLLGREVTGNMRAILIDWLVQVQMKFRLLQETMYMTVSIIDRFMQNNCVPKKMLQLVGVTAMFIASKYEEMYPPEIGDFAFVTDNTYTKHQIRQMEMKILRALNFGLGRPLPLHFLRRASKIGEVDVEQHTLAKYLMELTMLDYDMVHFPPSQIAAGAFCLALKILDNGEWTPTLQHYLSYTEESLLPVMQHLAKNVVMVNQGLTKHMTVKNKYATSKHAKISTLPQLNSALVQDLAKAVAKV
# Method: as §3, §2
# In a final reaction volume of 10 μl, CDK1/CyclinB (h) (0.2 μg/ml) is incubated with 50 mM Hepes pH 7.5, 10 mM MgCl2, 1 mM EGTA, 0.01% Brij-35, 2 μM Z'lyte Ser/Thr peptide 12 and 10 μM ATP (Invitrogen's FRET assay). After incubation of 60 minutes at room temperature, the reaction is stopped by addition of 5 μL development reagent containing protease mix. After 60 minutes room temperature the development reaction is stopped by adding 5 μl stop solution. The plate is then read in fluorescence plate reader with excitation: 390 nm and dual emission: 460 and 538 nm. Emission ratio is determined to the formula=Emission signal intensity at 460 nm/Emission signal intensity at 538 nm.
# PLK1 T210D (h) = PLK1 T210D (h) (Homo sapiens, UniProt P53350, T210D); test: PLK1 human kinase inhibition, SPA; type: biochemical; conditions: read-out: PLK1 pIC50 (converted)
# PLK1 T210D (h), sequence (P53350 whole entry T210D): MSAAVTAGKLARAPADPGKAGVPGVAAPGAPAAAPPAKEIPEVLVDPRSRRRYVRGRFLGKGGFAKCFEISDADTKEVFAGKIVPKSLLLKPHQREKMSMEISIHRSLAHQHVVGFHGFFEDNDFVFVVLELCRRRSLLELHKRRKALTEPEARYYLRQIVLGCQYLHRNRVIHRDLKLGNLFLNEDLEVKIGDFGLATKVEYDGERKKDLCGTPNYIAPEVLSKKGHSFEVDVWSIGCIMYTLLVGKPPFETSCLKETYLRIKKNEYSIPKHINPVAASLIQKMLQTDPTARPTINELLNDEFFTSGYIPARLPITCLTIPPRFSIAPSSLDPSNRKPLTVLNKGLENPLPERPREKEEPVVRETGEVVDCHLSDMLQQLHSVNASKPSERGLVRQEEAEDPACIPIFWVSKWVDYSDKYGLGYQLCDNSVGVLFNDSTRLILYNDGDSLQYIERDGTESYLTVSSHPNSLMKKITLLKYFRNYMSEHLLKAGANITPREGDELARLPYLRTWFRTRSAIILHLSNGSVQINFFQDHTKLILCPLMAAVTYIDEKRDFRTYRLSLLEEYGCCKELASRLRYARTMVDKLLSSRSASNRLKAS
# Method: as §3, §1, §2
# In a final reaction volume of 30 μl, PLK1 T210D (h) (0.125 ng/ml) is incubated with 50 mM Hepes pH 8.0, 2 mM MnCl2, 1 mM DTT, 2 μM of peptide Biotin-Tds linker-[…], 0.1 μM ATP and 2 nM [γ-^33P-ATP] (6.0 μCi/ml). After incubation of 40 minutes at room temperature, the reaction is stopped by addition of 40 μL of stop solution containing 8.7 mM EDTA, BSA 0.17%, 0.17% Triton X-100, 25 mg/ml SPA beads (GE-healthcare). The plate is centrifuged and read for Scintillation imaging on Leadseeker.
# PLK2 (h) = PLK2 (h) (Homo sapiens, UniProt Q9NYY3); test: PLK2 human kinase inhibition, SPA; type: biochemical; conditions: read-out: PLK2 pIC50 (converted)
# PLK2 (h), sequence (Q9NYY3 whole entry): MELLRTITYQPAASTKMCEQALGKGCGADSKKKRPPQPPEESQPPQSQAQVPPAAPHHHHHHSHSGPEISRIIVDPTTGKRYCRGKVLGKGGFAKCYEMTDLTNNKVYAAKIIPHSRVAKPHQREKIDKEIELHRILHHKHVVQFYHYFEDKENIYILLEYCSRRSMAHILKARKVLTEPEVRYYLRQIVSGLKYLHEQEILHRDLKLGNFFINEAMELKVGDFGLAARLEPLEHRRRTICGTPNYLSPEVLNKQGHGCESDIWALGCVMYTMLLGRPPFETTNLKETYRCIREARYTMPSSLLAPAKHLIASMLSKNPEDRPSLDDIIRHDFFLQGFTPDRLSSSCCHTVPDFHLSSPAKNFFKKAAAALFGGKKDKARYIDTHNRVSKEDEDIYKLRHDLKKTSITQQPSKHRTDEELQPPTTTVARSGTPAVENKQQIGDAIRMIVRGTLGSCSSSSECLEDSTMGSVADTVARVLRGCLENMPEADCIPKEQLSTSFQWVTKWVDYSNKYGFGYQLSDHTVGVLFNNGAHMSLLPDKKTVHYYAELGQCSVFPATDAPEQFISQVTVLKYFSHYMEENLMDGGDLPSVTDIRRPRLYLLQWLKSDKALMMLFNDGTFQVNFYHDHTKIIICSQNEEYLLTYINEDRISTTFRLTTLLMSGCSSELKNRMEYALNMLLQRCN
# Method: as §3, §1, §2
# (§4) In a final reaction volume of 30 μl, PLK2 (h) (30 μg/ml) is incubated with 50 mM Hepes pH 8.0, 2 mM MnCl2, 1 mM DTT, 2 μM of peptide Biotin-Tds linker-[…], 0.1 μM ATP and 2 nM [γ-^33P-ATP] (6.0 μCi/ml). After incubation of 20 minutes at room temperature, the reaction is stopped by addition of 40 μL of stop solution containing 8.7 mM EDTA, BSA 0.17%, 0.17% Triton X-100, 25 mg/ml SPA beads (GE-healthcare). The plate is centrifuged and read for Scintillation imaging on Leadseeker.
# PLK3 (h) = PLK3 (h) (Homo sapiens, UniProt Q9H4B4); test: PLK3 human kinase inhibition, SPA; type: biochemical; conditions: read-out: PLK3 pIC50 (converted)
# PLK3 (h), sequence (Q9H4B4 whole entry): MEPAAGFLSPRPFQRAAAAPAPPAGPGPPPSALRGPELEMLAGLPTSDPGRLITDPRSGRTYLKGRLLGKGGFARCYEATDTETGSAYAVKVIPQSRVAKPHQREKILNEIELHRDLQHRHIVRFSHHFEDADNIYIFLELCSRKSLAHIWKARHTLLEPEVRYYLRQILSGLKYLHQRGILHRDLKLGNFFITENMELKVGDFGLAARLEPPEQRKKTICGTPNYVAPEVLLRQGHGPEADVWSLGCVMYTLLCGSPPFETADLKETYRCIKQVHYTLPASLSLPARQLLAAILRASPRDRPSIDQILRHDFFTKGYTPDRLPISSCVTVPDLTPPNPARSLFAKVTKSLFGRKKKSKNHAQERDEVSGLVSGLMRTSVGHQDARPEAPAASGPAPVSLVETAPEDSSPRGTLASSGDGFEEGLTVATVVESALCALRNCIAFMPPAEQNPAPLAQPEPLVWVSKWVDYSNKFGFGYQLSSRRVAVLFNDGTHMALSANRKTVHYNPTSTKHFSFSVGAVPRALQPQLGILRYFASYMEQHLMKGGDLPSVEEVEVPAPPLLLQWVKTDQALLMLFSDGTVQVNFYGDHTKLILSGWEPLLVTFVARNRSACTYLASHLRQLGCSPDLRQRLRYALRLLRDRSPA
# Method: as §3, §1, §2
# as §4, with “PLK3” for “PLK2”
# HCT-116 = test: Cellular proliferation assay (Alamar blue), HCT-116; type: cell-based; conditions: Homo sapiens, 10% FCS, 72 hours with compound, Alamar blue 4 h
# Method: (§5) […] functional properties of these compounds were tested in cellular proliferation assays on a panel of different cell lines in the presence of 10% FCS serum (37° C. and 5% (v/v) CO2). In a first step these cells were seeded and incubated for 24 hours in the absence of compound. In the second step the cells were incubated for 72 hours with the compounds to be tested for 72 hours. The viable cell number was finally assessed in a standard Alamar blue cell viability assay.
# (§6) The viable cell number was assessed by incubation for either 4 h (HCT-116, H1299) 6 h (U87-MG) or 24 h (A2780, MDA-MB-231) with Alamar blue (Resazurin 9 μg/ml, K-Ferrocyanide 90 μM, K-Ferricyanide 90 μM) and the converted fluorescent product was quantified on a fluorescent plate reader (544 nm/590 nm). Effect of the compounds is calculated as of on control cells.
# H1299 = test: Cellular proliferation assay (Alamar blue), H1299; type: cell-based; conditions: Homo sapiens, NCI-H1299; 10% FCS; 72 hours with compound; Alamar blue 4 h
# Method: as §5, §6
# U87-MG = test: Cellular proliferation assay (Alamar blue), U87-MG; type: cell-based; conditions: Homo sapiens, U-87 MG; 10% FCS; 72 hours with compound; Alamar blue 6 h; read-out: U87-MG (cellular proliferation assay, Table 4) (converted)
# Method: as §5, §6
# A2780 = test: Cellular proliferation assay (Alamar blue), A2780; type: cell-based; conditions: Homo sapiens, 10% FCS, 72 hours with compound, Alamar blue 24 h, read-out: A2780 (cellular proliferation assay, Table 4) (converted)
# Method: as §5, §6
# MDA-MB-231 = test: Cellular proliferation assay (Alamar blue), MDA-MB-231; type: cell-based; conditions: Homo sapiens, 10% FCS, 72 hours with compound, Alamar blue 24 h, read-out: MDA/MB231 (cellular proliferation assay, Table 4) (converted)
# Method: as §5, §6
# PLK4 (h), sequence (O00444 whole entry): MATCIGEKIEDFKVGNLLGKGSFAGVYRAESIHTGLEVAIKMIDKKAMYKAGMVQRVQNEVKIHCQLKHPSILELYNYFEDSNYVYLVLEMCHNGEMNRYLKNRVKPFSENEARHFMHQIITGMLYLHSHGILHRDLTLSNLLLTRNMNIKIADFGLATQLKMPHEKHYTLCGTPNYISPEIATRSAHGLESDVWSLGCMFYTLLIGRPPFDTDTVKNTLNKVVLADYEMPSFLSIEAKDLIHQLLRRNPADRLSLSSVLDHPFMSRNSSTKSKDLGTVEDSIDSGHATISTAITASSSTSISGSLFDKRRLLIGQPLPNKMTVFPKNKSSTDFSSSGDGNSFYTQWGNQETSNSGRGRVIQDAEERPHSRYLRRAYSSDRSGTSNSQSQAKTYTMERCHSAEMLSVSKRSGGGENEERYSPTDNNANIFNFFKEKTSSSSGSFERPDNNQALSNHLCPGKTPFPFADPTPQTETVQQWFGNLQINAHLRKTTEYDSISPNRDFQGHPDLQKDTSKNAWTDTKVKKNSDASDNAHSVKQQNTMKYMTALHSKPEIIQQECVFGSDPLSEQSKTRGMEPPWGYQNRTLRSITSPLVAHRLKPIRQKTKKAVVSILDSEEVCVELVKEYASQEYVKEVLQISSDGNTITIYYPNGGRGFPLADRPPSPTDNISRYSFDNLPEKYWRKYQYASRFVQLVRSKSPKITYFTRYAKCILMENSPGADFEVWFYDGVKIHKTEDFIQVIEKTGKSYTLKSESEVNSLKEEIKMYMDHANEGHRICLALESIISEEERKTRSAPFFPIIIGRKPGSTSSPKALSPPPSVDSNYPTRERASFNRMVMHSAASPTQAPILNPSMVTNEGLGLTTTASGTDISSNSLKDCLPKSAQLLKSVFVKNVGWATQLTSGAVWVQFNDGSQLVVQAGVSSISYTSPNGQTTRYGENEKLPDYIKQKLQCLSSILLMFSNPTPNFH
Structure (SMILES),IC50 (PLK4 (h)) [nM],IC50 (AuroraB (h)) [µM],IC50 (GSK3β (h)) [nM],IC50 (CDK1/CyclinB (h)) [µM],IC50 (PLK1 T210D (h)) [µM],IC50 (PLK2 (h)) [µM],IC50 (PLK3 (h)) [µM],IC50 (HCT-116) [µM],IC50 (H1299) [µM],IC50 (U87-MG) [µM],IC50 (A2780) [µM],IC50 (MDA-MB-231) [µM]
CC(C)Nc1cc2cc(c1)Nc1nccc(n1)-c1ccc(cc1)CN(C)CCNC(=O)CN1CCN(CC1)C2 [Compound 128],1020,> 10,1950,1.38,> 10,> 10,> 10,> 10,> 10,7.94,> 10,> 10
COc1cc2cc(c1OC)CNC(=O)[C@@H]1CCCN1Cc1cccc(c1)-c1ccnc(n1)N2 [Compound 150],832,> 10,100,5.89,> 10,> 10,> 10,4.27,> 10,> 10,> 10,> 10
O=C1NCCCOc2cccc(c2)-c2ccnc(n2)Nc2ccc(N3CCOCC3)c(c2)CN2CCC1CC2 [Compound 93],1120,> 10,4680,> 10,> 10,> 10,> 10,3.63,> 10,> 10,7.24,10
O=C1NCCCOc2cccc(c2)-c2ccnc(n2)Nc2ccc(N3CCOCC3)c(c2)CN2C[C@H](O)C[C@@H]12 [Compound 99],3630,> 10,417,> 10,> 10,> 10,> 10,6.92,> 10,6.92,7.76,> 10
COc1ccc2cc1CN(C)CCNC(=O)[C@H](CO)NCc1cccc(c1)Nc1nccc-2n1 [Compound 120],7080,> 10,> 10000,> 10,> 10,> 10,> 10,> 10,> 10,> 10,> 10,> 10
COc1cc2cc(c1OC)CNC(=O)[C@H](CO)NCc1cccc(c1)-c1ccnc(n1)N2 [Compound 8],363,4.68,309,> 10,> 10,3.63,4.68,7.94,> 10,> 10,> 10,> 10
CN1CCCNC(=O)[C@H](CO)NCc2cc(Br)cc(c2)Nc2nccc(n2)-c2ccc(cc2)C1 [Compound 110],759,2.57,6460,> 10,> 10,> 10,> 10,> 10,–,8.51,5.5,–
COc1ccc2cc1CNCCCNC(=O)[C@@H]1C[C@@H](O)CN1Cc1cc(ccc1N1CCOCC1)Nc1nccc-2n1 [Compound 176],> 10000,–,–,–,> 10,–,–,> 10,> 10,> 10,> 10,> 10
CN1CCNC(=O)[C@H](CO)NCc2cc(Br)cc(c2)Nc2nccc(n2)-c2ccc(cc2)C1 [Compound 121],–,–,–,–,–,–,–,1.91,6.03,7.24,10,7.76
O=C1NCCNCc2ccc(cc2)-c2ccnc(n2)Nc2ccc(N3CCOCC3)c(c2)CN2C[C@H](O)C[C@@H]12 [Compound 166],3550,–,–,–,> 10,–,–,> 10,–,> 3.02,> 10,> 10
O=C1NCCCNCc2ccc(cc2)-c2ccnc(n2)Nc2ccc(N3CCOCC3)c(c2)CN2CCC1CC2 [Compound 69],1580,–,–,–,> 10,–,–,> 10,2.63,5.62,> 10,> 10
O=C1NCCCNCc2ccc(cc2)-c2ccnc(n2)Nc2ccc(N3CCOCC3)c(c2)CN2CCC[C@@H]12 [Compound 172],5370,–,–,–,> 10,–,–,> 10,–,4.79,> 10,> 10
COc1ccc2cc1CN1CCN(CC1)CC(=O)N(C)CCCN(C)c1ccc(cn1)-c1ccnc(n1)N2 [Compound 148],–,–,–,–,–,–,–,0.316,> 10,4.68,> 10,> 10
